{
  "source": "patent US10787452B2",
  "about": "(Vertex Pharmaceuticals Incorporated, priority 2012, dated 2020)",
  "system": "HCT116 colorectal cancer cells",
  "test": "Cisplatin sensitization assay (96 h cell viability MTS);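 note: compound concentration needed to lower the Cisplatin-alone IC50 by a set fold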",
  "assay_type": "cell-based",
  "conditions": "96 h MTS, compound plus Cisplatin",
  "outline": "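Cisplatin and compound are dosed at the same time, both serially diluted 2-fold from 10 μM final across a full matrix. Plates sit at 37° C in 5% CO2 for 96 h before MTS addition.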",
  "data": [
    {"compound": "N#CCc1cnc2c(C(=O)Nc3cnccc3N3CCC(N)CC3)c(N)nn2c1", "note": "[I-N-2, 2-amino-N-(4-(4-aminopiperidin-1-yl)pyridin-3-yl)-6-(cyanomethyl)pyrazolo[1,5-a]pyrimidine-3-carboxamide]", "values": [
      {"measurement": "Cisplatin Sensitization Assay", "result": "+++ (Compounds with a Cisplatin sensitization value of <0.02 μM are marked with “+++.”)"}
    ]},
    {"compound": "CN1CCN(c2ccncc2NC(=O)c2c(N)nn3cc(F)cnc23)CC1", "note": "[I-N-3, 2-amino-6-fluoro-N-(4-(4-methylpiperazin-1-yl)pyridin-3-yl)pyrazolo[1,5-a]pyrimidine-3-carboxamide]", "values": [
      {"measurement": "Cisplatin Sensitization Assay", "result": "+++ (Compounds with a Cisplatin sensitization value of <0.02 μM are marked with “+++.”)"}
    ]},
    {"compound": "CC(C)N1CCN(c2ccncc2NC(=O)c2c(N)nn3cc(F)cnc23)CC1", "note": "[I-N-4, 2-amino-6-fluoro-N-(4-(4-isopropylpiperazin-1-yl)pyridin-3-yl)pyrazolo[1,5-a]pyrimidine-3-carboxamide]", "values": [
      {"measurement": "Cisplatin Sensitization Assay", "result": "+++ (Compounds with a Cisplatin sensitization value of <0.02 μM are marked with “+++.”)"}
    ]},
    {"compound": "CN1CCN(c2c(NC(=O)c3c(N)nn4cc(F)cnc34)cncc2C2CC2)CC1", "note": "[I-N-5, 2-amino-N-(5-cyclopropyl-4-(4-methylpiperazin-1-yl)pyridin-3-yl)-6-fluoropyrazolo[1,5-a]pyrimidine-3-carboxamide]", "values": [
      {"measurement": "Cisplatin Sensitization Assay", "result": "++ (Compounds with a Cisplatin sensitization value >0.02 μM but <0.2 μM are marked with “++.”)"}
    ]},
    {"compound": "Nc1nn2cc(F)cnc2c1C(=O)Nc1cnccc1-n1ccnc1", "note": "[I-N-7, N-(4-(1H-imidazol-1-yl)pyridin-3-yl)-2-amino-6-fluoropyrazolo[1,5-a]pyrimidine-3-carboxamide]", "values": [
      {"measurement": "Cisplatin Sensitization Assay", "result": "++ (Compounds with a Cisplatin sensitization value >0.02 μM but <0.2 μM are marked with “++.”)"}
    ]},
    {"compound": "CNCCc1cnn(-c2ccncc2NC(=O)c2c(N)nn3cc(F)cnc23)c1", "note": "[I-N-8, 2-amino-6-fluoro-N-(4-(4-(2-(methylamino)ethyl)-1H-pyrazol-1-yl)pyridin-3-yl)pyrazolo[1,5-a]pyrimidine-3-carboxamide]", "values": [
      {"measurement": "Cisplatin Sensitization Assay", "result": "+ (Compounds with a Cisplatin sensitization value >0.2 μM but <5 μM are marked with “+.”)"}
    ]},
    {"compound": "CN(C)CCc1cnn(-c2ccncc2NC(=O)c2c(N)nn3cc(F)cnc23)c1", "note": "[I-N-9, 2-amino-N-(4-(4-(2-(dimethylamino)ethyl)-1H-pyrazol-1-yl)pyridin-3-yl)-6-fluoropyrazolo[1,5-a]pyrimidine-3-carboxamide]", "values": [
      {"measurement": "Cisplatin Sensitization Assay", "result": "+ (Compounds with a Cisplatin sensitization value >0.2 μM but <5 μM are marked with “+.”)"}
    ]},
    {"compound": "Nc1nn2cc(F)cnc2c1C(=O)Nc1cnccc1N1CCN([C@@H]2CCOC2)CC1", "note": "[I-N-10, (R)-2-amino-6-fluoro-N-(4-(4-(tetrahydrofuran-3-yl)piperazin-1-yl)pyridin-3-yl)pyrazolo[1,5-a]pyrimidine-3-carboxamide]", "values": [
      {"measurement": "Cisplatin Sensitization Assay", "result": "++ (Compounds with a Cisplatin sensitization value >0.02 μM but <0.2 μM are marked with “++.”)"}
    ]},
    {"compound": "Nc1nn2cc(F)cnc2c1C(=O)Nc1cnccc1N1CCN(C2CCOCC2)CC1", "note": "[I-N-11, 2-amino-6-fluoro-N-(4-(4-(tetrahydro-2H-pyran-4-yl)piperazin-1-yl)pyridin-3-yl)pyrazolo[1,5-a]pyrimidine-3-carboxamide]", "values": [
      {"measurement": "Cisplatin Sensitization Assay", "result": "++ (Compounds with a Cisplatin sensitization value >0.02 μM but <0.2 μM are marked with “++.”)"}
    ]},
    {"compound": "Nc1nn2cc(F)cnc2c1C(=O)Nc1cncc(F)c1N1CCN(C2COC2)CC1", "note": "[I-N-13, 2-amino-6-fluoro-N-(5-fluoro-4-(4-(oxetan-3-yl)piperazin-1-yl)pyridin-3-yl)pyrazolo[1,5-a]pyrimidine-3-carboxamide]", "values": [
      {"measurement": "Cisplatin Sensitization Assay", "result": "+++ (Compounds with a Cisplatin sensitization value of <0.02 μM are marked with “+++.”)"}
    ]},
    {"compound": "CN1CCN(c2c(F)cncc2NC(=O)c2c(N)nn3cc(Cl)cnc23)CC1", "note": "[I-N-14, 2-amino-6-chloro-N-(5-fluoro-4-(4-methylpiperazin-1-yl)pyridin-3-yl)pyrazolo[1,5-a]pyrimidine-3-carboxamide]", "values": [
      {"measurement": "Cisplatin Sensitization Assay", "result": "+++ (Compounds with a Cisplatin sensitization value of <0.02 μM are marked with “+++.”)"}
    ]},
    {"compound": "CN1CCN(c2c(F)cncc2NC(=O)c2c(N)nn3cc(F)cnc23)CC1", "note": "[I-N-15, 2-amino-6-fluoro-N-(5-fluoro-4-(4-methylpiperazin-1-yl)pyridin-3-yl)pyrazolo[1,5-a]pyrimidine-3-carboxamide]", "values": [
      {"measurement": "Cisplatin Sensitization Assay", "result": "+++ (Compounds with a Cisplatin sensitization value of <0.02 μM are marked with “+++.”)"}
    ]},
    {"compound": "Cc1cncc(NC(=O)c2c(N)nn3cc(F)cnc23)c1N1CCN(C2COC2)CC1", "note": "[I-N-16, 2-amino-6-fluoro-N-(5-methyl-4-(4-(oxetan-3-yl)piperazin-1-yl)pyridin-3-yl)pyrazolo[1,5-a]pyrimidine-3-carboxamide]", "values": [
      {"measurement": "Cisplatin Sensitization Assay", "result": "+++ (Compounds with a Cisplatin sensitization value of <0.02 μM are marked with “+++.”)"}
    ]},
    {"compound": "CCN1CCN(c2ccncc2NC(=O)c2c(N)nn3cc(F)cnc23)CC1", "note": "[I-N-17, 2-amino-N-(4-(4-ethylpiperazin-1-yl)pyridin-3-yl)-6-fluoropyrazolo[1,5-a]pyrimidine-3-carboxamide]", "values": [
      {"measurement": "Cisplatin Sensitization Assay", "result": "+++ (Compounds with a Cisplatin sensitization value of <0.02 μM are marked with “+++.”)"}
    ]},
    {"compound": "Nc1nn2cc(F)cnc2c1C(=O)Nc1cnccc1N1CCN2CCC1CC2", "note": "[I-N-18, N-(4-(1,4-diazabicyclo[3.2.2]nonan-4-yl)pyridin-3-yl)-2-amino-6-fluoropyrazolo[1,5-a]pyrimidine-3-carboxamide]", "values": [
      {"measurement": "Cisplatin Sensitization Assay", "result": "++ (Compounds with a Cisplatin sensitization value >0.02 μM but <0.2 μM are marked with “++.”)"}
    ]},
    {"compound": "Nc1nn2cc(F)cnc2c1C(=O)Nc1cnccc1N1CCN(CC(F)(F)F)CC1", "note": "[I-N-20, 2-amino-6-fluoro-N-(4-(4-(2,2,2-trifluoroethyl)piperazin-1-yl)pyridin-3-yl)pyrazolo[1,5-a]pyrimidine-3-carboxamide]", "values": [
      {"measurement": "Cisplatin Sensitization Assay", "result": "+++ (Compounds with a Cisplatin sensitization value of <0.02 μM are marked with “+++.”)"}
    ]},
    {"compound": "Nc1nn2cc(F)cnc2c1C(=O)Nc1cnccc1N1CCN2CCC[C@H]2C1", "note": "[I-N-21, (S)-2-amino-6-fluoro-N-(4-(hexahydropyrrolo[1,2-a]pyrazin-2(1H)-yl)pyridin-3-yl)pyrazolo[1,5-a]pyrimidine-3-carboxamide]", "values": [
      {"measurement": "Cisplatin Sensitization Assay", "result": "+++ (Compounds with a Cisplatin sensitization value of <0.02 μM are marked with “+++.”)"}
    ]},
    {"compound": "C[C@@H]1CN(C2COC2)CCN1c1ccncc1NC(=O)c1c(N)nn2cc(F)cnc12", "note": "[I-N-23, (R)-2-amino-6-fluoro-N-(4-(2-methyl-4-(oxetan-3-yl)piperazin-1-yl)pyridin-3-yl)pyrazolo[1,5-a]pyrimidine-3-carboxamide]", "values": [
      {"measurement": "Cisplatin Sensitization Assay", "result": "+++ (Compounds with a Cisplatin sensitization value of <0.02 μM are marked with “+++.”)"}
    ]},
    {"compound": "C[C@H]1CN(C2COC2)CCN1c1ccncc1NC(=O)c1c(N)nn2cc(F)cnc12", "note": "[I-N-24, (S)-2-amino-6-fluoro-N-(4-(2-methyl-4-(oxetan-3-yl)piperazin-1-yl)pyridin-3-yl)pyrazolo[1,5-a]pyrimidine-3-carboxamide]", "values": [
      {"measurement": "Cisplatin Sensitization Assay", "result": "+++ (Compounds with a Cisplatin sensitization value of <0.02 μM are marked with “+++.”)"}
    ]},
    {"compound": "Nc1nn2cc(F)cnc2c1C(=O)Nc1cnccc1-n1cccn1", "note": "[I-N-26, N-(4-(1H-pyrazol-1-yl)pyridin-3-yl)-2-amino-6-fluoropyrazolo[1,5-a]pyrimidine-3-carboxamide]", "values": [
      {"measurement": "Cisplatin Sensitization Assay", "result": "+ (Compounds with a Cisplatin sensitization value >0.2 μM but <5 μM are marked with “+.”)"}
    ]},
    {"compound": "Nc1nn2cc(F)cnc2c1C(=O)Nc1cnccc1-n1cnc(C(F)(F)F)c1", "note": "[I-N-27, 2-amino-6-fluoro-N-(4-(4-(trifluoromethyl)-1H-imidazol-1-yl)pyridin-3-yl)pyrazolo[1,5-a]pyrimidine-3-carboxamide]", "values": [
      {"measurement": "Cisplatin Sensitization Assay", "result": "++ (Compounds with a Cisplatin sensitization value >0.02 μM but <0.2 μM are marked with “++.”)"}
    ]},
    {"compound": "Cc1nccn1-c1ccncc1NC(=O)c1c(N)nn2cc(F)cnc12", "note": "[I-N-28, 2-amino-6-fluoro-N-(4-(2-methyl-1H-imidazol-1-yl)pyridin-3-yl)pyrazolo[1,5-a]pyrimidine-3-carboxamide]", "values": [
      {"measurement": "Cisplatin Sensitization Assay", "result": "+++ (Compounds with a Cisplatin sensitization value of <0.02 μM are marked with “+++.”)"}
    ]},
    {"compound": "Nc1nn2cc(Cl)cnc2c1C(=O)Nc1cnccc1-n1ccnc1", "note": "[I-N-29, N-(4-(1H-imidazol-1-yl)pyridin-3-yl)-2-amino-6-chloropyrazolo[1,5-a]pyrimidine-3-carboxamide]", "values": [
      {"measurement": "Cisplatin Sensitization Assay", "result": "++ (Compounds with a Cisplatin sensitization value >0.02 μM but <0.2 μM are marked with “++.”)"}
    ]},
    {"compound": "Cc1nc(C(F)(F)F)cn1-c1ccncc1NC(=O)c1c(N)nn2cc(F)cnc12", "note": "[I-N-30, 2-amino-6-fluoro-N-(4-(2-methyl-4-(trifluoromethyl)-1H-imidazol-1-yl)pyridin-3-yl)pyrazolo[1,5-a]pyrimidine-3-carboxamide]", "values": [
      {"measurement": "Cisplatin Sensitization Assay", "result": "++ (Compounds with a Cisplatin sensitization value >0.02 μM but <0.2 μM are marked with “++.”)"}
    ]},
    {"compound": "Nc1nn2cc(F)cnc2c1C(=O)Nc1cnccc1N1CCN(C2COC2)C2CC21", "note": "(stereo not shown) [I-N-31, 2-amino-6-fluoro-N-(4-(5-(oxetan-3-yl)-2,5-diazabicyclo[4.1.0]heptan-2-yl)pyridin-3-yl)pyrazolo[1,5-a]pyrimidine-3-carboxamide]", "values": [
      {"measurement": "Cisplatin Sensitization Assay", "result": "+ (Compounds with a Cisplatin sensitization value >0.2 μM but <5 μM are marked with “+.”)"}
    ]},
    {"compound": "Nc1nn2cc(F)cnc2c1C(=O)Nc1cncc(C2CC2)c1N1CCN(C2COC2)CC1", "note": "[I-N-32, 2-amino-N-(5-cyclopropyl-4-(4-(oxetan-3-yl)piperazin-1-yl)pyridin-3-yl)-6-fluoropyrazolo[1,5-a]pyrimidine-3-carboxamide]", "values": [
      {"measurement": "Cisplatin Sensitization Assay", "result": "++ (Compounds with a Cisplatin sensitization value >0.02 μM but <0.2 μM are marked with “++.”)"}
    ]},
    {"compound": "Nc1nn2cc(F)cnc2c1C(=O)Nc1cnccc1N1CCN(C2CC2)CC1", "note": "[I-N-33, 2-amino-N-(4-(4-cyclopropylpiperazin-1-yl)pyridin-3-yl)-6-fluoropyrazolo[1,5-a]pyrimidine-3-carboxamide]", "values": [
      {"measurement": "Cisplatin Sensitization Assay", "result": "+ (Compounds with a Cisplatin sensitization value >0.2 μM but <5 μM are marked with “+.”)"}
    ]},
    {"compound": "CC(C)(C)N1CCN(c2ccncc2NC(=O)c2c(N)nn3cc(Cl)cnc23)CC1", "note": "[I-N-34, 2-amino-N-(4-(4-(tert-butyl)piperazin-1-yl)pyridin-3-yl)-6-chloropyrazolo[1,5-a]pyrimidine-3-carboxamide]", "values": [
      {"measurement": "Cisplatin Sensitization Assay", "result": "++ (Compounds with a Cisplatin sensitization value >0.02 μM but <0.2 μM are marked with “++.”)"}
    ]}
  ]
}
